Values of other authors in patent US10945961B2, “Method using enteric-coated etidronate for treating calcification, hypercalcaemia, and calcinosis of the brain and other organs” (ZY YTHERAPEUTICS LLC, priority 2017, dated 2021).
“Also recorded” adds a separate entry of the source.

What was measured:
[1] = for plasma half-life: comparison of first- with 2nd and 3rd generation bisphosphonates
[2] = tested on: patients with brain calcifications (Fahr's Disease)
[3] = preclinical studies; immediate-release
[4] = animal studies
[5] = in vitro

| SMILES | plasma half-life [1] | symptomatic effect (seizures, headaches, Parkinsonian symptoms) ([2]; patients with brain calcification) | size of intracerebral calcifications ([2]; patients, finding of Loeb) | crossing of the blood-brain barrier [3] | bone clearance estimates [4] | affinity for solid-phase calcium phosphate [5] | metabolism ([1]; in vivo) | amount of drug absorbed after an oral dose ([1]; oral dose, immediate-release) | absorbed dose excreted in urine ([1]; within 24 hours, fraction of the absorbed dose) |
| --- | --- | --- | --- | --- | --- | --- | --- | --- | --- |
| O=P(O)(O)C(O)(Cn1ccnc1)P(=O)(O)O [zolendronic acid] | 146 h |  |  |  |  |  |  |  |  |
| CC(O)(P(=O)(O)O)P(=O)(O)O [disodium etidronate, 1-hydroxyethane 1,1-diphosphonic acid] | 6 h | reduction in seizures and headaches; also recorded: symptomatic improvement of seizures, headaches, and Parkinsonian symptoms | does not reduce the size of intracerebral calcifications | does not significantly cross the blood-brain barrier | up to 165 days | high affinity | not metabolized | 3% | approximately half |
